From ChEMBL document CHEMBL3600291, “Synthesis and carbonic anhydrase I, II, IX and XII inhibitory activity of sulfamates incorporating piperazinyl-ureido moieties” (Bioorg Med Chem, 2015)
pKi: −log10 of the molar value.

What was measured:
Carbonic anhydrase 12 = Carbonic anhydrase 12 (Homo sapiens, UniProt O43570); test: Inhibition of human recombinant carbonic anhydrase-12 pre-incubated for 15 mins by stopped-flow CO2 hydration assay
Carbonic anhydrase 2 = Carbonic anhydrase 2 (Homo sapiens, UniProt P00918); test: Inhibition of human recombinant carbonic anhydrase-2 pre-incubated for 15 mins by stopped-flow CO2 hydration assay
Carbonic anhydrase 1 = Carbonic anhydrase 1 (Homo sapiens, UniProt P00915); test: Inhibition of human recombinant carbonic anhydrase-1 pre-incubated for 15 mins by stopped-flow CO2 hydration assay
Carbonic anhydrase 1, sequence (P00915 whole entry): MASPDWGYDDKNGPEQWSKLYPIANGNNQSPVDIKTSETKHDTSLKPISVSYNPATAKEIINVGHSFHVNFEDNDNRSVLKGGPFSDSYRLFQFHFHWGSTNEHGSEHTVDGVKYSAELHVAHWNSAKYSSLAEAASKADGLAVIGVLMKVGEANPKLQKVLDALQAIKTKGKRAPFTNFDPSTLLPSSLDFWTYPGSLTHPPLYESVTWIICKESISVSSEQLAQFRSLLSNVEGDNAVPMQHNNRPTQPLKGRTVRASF

Carbonic anhydrase 9 = Carbonic anhydrase 9 (Homo sapiens, UniProt Q16790); test: Inhibition of human recombinant carbonic anhydrase-9 pre-incubated for 15 mins by stopped-flow CO2 hydration assay

Carbonic anhydrase 12, sequence (O43570 whole entry): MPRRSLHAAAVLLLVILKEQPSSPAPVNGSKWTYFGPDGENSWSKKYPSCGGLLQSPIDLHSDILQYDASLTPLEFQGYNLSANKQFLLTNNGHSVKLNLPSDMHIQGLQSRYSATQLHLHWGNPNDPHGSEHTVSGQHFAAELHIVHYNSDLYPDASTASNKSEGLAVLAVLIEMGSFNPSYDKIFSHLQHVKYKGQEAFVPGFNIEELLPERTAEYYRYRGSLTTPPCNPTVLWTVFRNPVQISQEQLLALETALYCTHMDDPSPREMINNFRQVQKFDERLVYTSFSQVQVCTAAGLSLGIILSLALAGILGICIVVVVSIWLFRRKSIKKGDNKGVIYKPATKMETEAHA

Row | pKi (Carbonic anhydrase 12) | pKi (Carbonic anhydrase 2) | pKi (Carbonic anhydrase 1) | pKi (Carbonic anhydrase 9) | SMILES
1 | – | – | < 5.00 | 6.95 | O=C(Nc1ccc(O)cc1)N1CCN(Cc2ccccc2)CC1
2 | 9.00 | 9.00 | 7.15 | 8.17 | NS(=O)(=O)Oc1ccc(NC(=O)N2CCN(c3nccc(-c4cc5ccccc5o4)n3)CC2)cc1
3 | – | – | – | 7.43 | O=C(Nc1ccc(O)cc1)N1CCN(c2ccc(F)cc2)CC1
4 | 8.96 | 8.04 | 6.55 | 6.94 | COc1ccc(N2CCN(C(=O)Nc3ccc(OS(N)(=O)=O)cc3)CC2)cc1
5 | 7.07 | 7.77 | 6.24 | 7.98 | NS(=O)(=O)Oc1ccc(NC(=O)N2CCN(c3ccc(Cl)cc3)CC2)cc1
6 | 7.43 | 7.95 | 7.06 | 7.47 | COc1cccc(N2CCN(C(=O)Nc3ccc(OS(N)(=O)=O)cc3)CC2)c1
7 | – | – | < 5.00 | 7.09 | O=C(Nc1ccc(O)cc1)N1CCN(c2ccc(Cl)cc2)CC1
8 | – | – | – | 6.94 | NS(=O)(=O)Oc1ccc(NC(=O)N2CCN(c3nccc(-c4ccc(Br)cc4)n3)CC2)cc1
9 | – | – | – | 6.26 | Cc1cccc(N2CCN(C(=O)Nc3ccc(O)cc3)CC2)c1

Continued, compound first:

Row | SMILES | pKi (Carbonic anhydrase 12) | pKi (Carbonic anhydrase 2) | pKi (Carbonic anhydrase 1) | pKi (Carbonic anhydrase 9)
10 | NS(=O)(=O)Oc1ccc(NC(=O)N2CCN(c3ccccc3)CC2)cc1 | 9.00 | 7.14 | 6.05 | 7.95
11 | NS(=O)(=O)Oc1ccc(NC(=O)N2CCN(c3nccc(-c4ccc(C(F)(F)F)cc4)n3)CC2)cc1 | – | – | – | 7.61
12 | NS(=O)(=O)Oc1ccc(NC(=O)N2CCN(c3ccc(F)cc3)CC2)cc1 | 7.19 | 7.74 | 8.03 | 7.21
13 | Cc1cccc(N2CCN(C(=O)Nc3ccc(OS(N)(=O)=O)cc3)CC2)c1 | 7.45 | 7.80 | 6.07 | 9.04
14 | Cc1cccc(N2CCN(C(=O)Nc3ccc(OS(N)(=O)=O)cc3)CC2)c1C | 9.00 | 7.95 | 7.20 | 7.49
15 | O=C(Nc1ccc(O)cc1)N1CCN(c2ccccc2)CC1 | – | – | – | 6.92
16 | NS(=O)(=O)Oc1ccc(NC(=O)N2CCN(Cc3ccccc3)CC2)cc1 | 9.00 | 7.93 | 6.50 | 7.98
